Measured values from patent US20250353891A1 (MEDIMMUNE LIMITED, priority 2022, published 2025).
Starred links: 1 amine or outer side, 2 acyl side, 3 side chain; linkers in the order of their positions; H or OH if unused. Non-standard residues stand in square brackets, D forms with d. Residues, ends and D or L forms follow the SMILES beside them. Groups on a side chain read outwards from the residue. *: point of attachment. C20 diacid = O=C(O)CCCCCCCCCCCCCCCCCCC(=O)*; γGlu = O=C(O)[C@H](CCC(=O)[*:2])N[*:1]; αMeF = C[C@](N)(Cc1ccccc1)C(=O)O; PEG4 = NCCOCCOCCOCCOCCC(=O)O; AEEA = NCCOCCOCC(=O)O; Aib = CC(C)(N)C(=O)O

What was measured:
[1] = biological target: human GLP-1 receptor (hGLP-1R) (Homo sapiens, UniProt P43220); assay: cAMP production (HTRF) in CHO cells expressing hGLP-1R; format: cell-based; design: expressed in transfected cells; conditions: for EC50: Table 7, peptides modified at position 20, cAMP in CHO hGLP-1R cells, geometric mean, read-out: hGLP-1R EC50; for % Relative Potency Ratio: Table 7, % GLP-1R activity relative to GLP-1 / % GlucR activity relative to glucagon
Sequence of human GLP-1 receptor (hGLP-1R) (P43220 24-463): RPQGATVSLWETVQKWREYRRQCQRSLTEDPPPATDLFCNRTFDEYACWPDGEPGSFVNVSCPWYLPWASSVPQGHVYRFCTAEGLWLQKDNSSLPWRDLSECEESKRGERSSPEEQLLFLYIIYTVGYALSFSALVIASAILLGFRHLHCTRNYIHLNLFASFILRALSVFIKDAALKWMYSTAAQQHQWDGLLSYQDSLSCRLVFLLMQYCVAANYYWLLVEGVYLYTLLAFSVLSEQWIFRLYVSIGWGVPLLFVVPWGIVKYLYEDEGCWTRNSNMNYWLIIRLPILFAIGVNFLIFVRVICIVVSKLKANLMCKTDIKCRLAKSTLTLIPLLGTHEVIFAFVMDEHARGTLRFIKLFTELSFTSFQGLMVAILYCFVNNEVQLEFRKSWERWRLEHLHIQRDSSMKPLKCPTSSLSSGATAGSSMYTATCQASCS
Outline: (§1)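 Read-out: HTRF cAMP (anti-cAMP cryptate donor, cAMP-d2 acceptor in conjugate/lysis buffer), converted to % Delta F and fitted by 4-parameter logistic for EC50. Cell densities were 1×10^5 cells/mL (hGLP-1R) or 2×10^5 cells/mL (hGCGR). Stimulation lasted 30 min at room temperature.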

[2] = biological target: human glucagon receptor (hGCGR) (Homo sapiens, UniProt P47871); assay: cAMP production (HTRF) in CHO cells expressing hGCGR; format: cell-based; design: expressed in transfected cells; conditions: Table 7, peptides modified at position 20; cAMP in CHO hGCGR cells; geometric mean; read-out: hGluc-R EC50
Sequence of human glucagon receptor (hGCGR) (P47871 26-477): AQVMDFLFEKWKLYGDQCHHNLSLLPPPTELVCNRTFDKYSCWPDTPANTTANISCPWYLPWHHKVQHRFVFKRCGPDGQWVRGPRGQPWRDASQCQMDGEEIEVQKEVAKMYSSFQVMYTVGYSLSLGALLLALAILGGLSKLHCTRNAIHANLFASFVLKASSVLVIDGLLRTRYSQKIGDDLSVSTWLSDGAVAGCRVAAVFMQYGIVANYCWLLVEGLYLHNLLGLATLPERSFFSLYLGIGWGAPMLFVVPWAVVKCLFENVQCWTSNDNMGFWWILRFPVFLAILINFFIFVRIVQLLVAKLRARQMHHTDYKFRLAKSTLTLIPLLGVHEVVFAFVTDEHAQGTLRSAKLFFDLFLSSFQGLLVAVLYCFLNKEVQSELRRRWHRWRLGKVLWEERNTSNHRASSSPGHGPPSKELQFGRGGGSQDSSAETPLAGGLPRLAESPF
Outline: as §1

Row | EC50 [1] | % Relative Potency Ratio [1] | EC50 [2] | SMILES
1 | 0.0656 nM | 3.9 | 0.128 nM | CC[C@H](C)[C@H](NC(=O)C(C)(C)NC(=O)[C@H](CCC(N)=O)NC(=O)[C@@H](NC(=O)[C@](C)(Cc1ccccc1)NC(=O)[C@H](CC(=O)O)NC(=O)[C@H](CCCCNC(=O)CCOCCOCCOCCOCCNC(=O)CC[C@H](NC(=O)CCCCCCCCCCCCCCCCCCC(=O)O)C(=O)O)NC(=O)[C@H](C)NC(=O)[C@H](C)NC(=O)[C@H](CCCNC(=N)N)NC(=O)[C@H](CO)NC(=O)[C@H](CC(=O)O)NC(=O)[C@H](CC(C)C)NC(=O)[C@](C)(Cc1ccccc1)NC(=O)[C@H](CCCCN)NC(=O)[C@H](CO)NC(=O)[C@@H](NC(=O)[C@H](CC(=O)O)NC(=O)[C@H](CO)NC(=O)[C@@H](NC(=O)[C@](C)(Cc1ccccc1)NC(=O)[C@H](CO)NC(=O)CNC(=O)[C@H](Cc1c[nH]cn1)NC(=O)C(C)(C)NC(=O)[C@@H](N)Cc1c[nH]cn1)[C@@H](C)O)C(C)C)C(C)C)C(=O)N[C@@H](C)C(=O)N[C@@H](CC(N)=O)C(=O)N[C@H](C(N)=O)[C@@H](C)O [Peptide 267] (H-H[Aib]HGS[αMeF]TSDVSK[αMeF]LDSRAAK([PEG4-γGlu-C20 diacid])D[αMeF]VQ[Aib]IANT-NH2)
2 | 0.0395 nM | 1.5 | 0.0293 nM | CC[C@H](C)[C@H](NC(=O)C(C)(C)NC(=O)[C@H](CCC(N)=O)NC(=O)[C@@H](NC(=O)[C@](C)(Cc1ccccc1)NC(=O)[C@H](CC(=O)O)NC(=O)[C@H](CCCCNC(=O)COCCOCCNC(=O)CC[C@H](NC(=O)CCCCCCCCCCCCCCCCCCC(=O)O)C(=O)O)NC(=O)[C@H](C)NC(=O)[C@H](C)NC(=O)[C@H](CCCNC(=N)N)NC(=O)[C@H](CO)NC(=O)[C@H](CC(=O)O)NC(=O)[C@H](CC(C)C)NC(=O)[C@](C)(Cc1ccccc1)NC(=O)[C@H](CCCCN)NC(=O)[C@H](CO)NC(=O)[C@@H](NC(=O)[C@H](CC(=O)O)NC(=O)[C@H](CO)NC(=O)[C@@H](NC(=O)[C@](C)(Cc1ccccc1)NC(=O)[C@H](CO)NC(=O)CNC(=O)[C@H](Cc1c[nH]cn1)NC(=O)C(C)(C)NC(=O)[C@@H](N)Cc1c[nH]cn1)[C@@H](C)O)C(C)C)C(C)C)C(=O)N[C@@H](C)C(=O)N[C@@H](CC(N)=O)C(=O)N[C@H](C(N)=O)[C@@H](C)O [Peptide 268] (H-H[Aib]HGS[αMeF]TSDVSK[αMeF]LDSRAAK([AEEA-γGlu-C20 diacid])D[αMeF]VQ[Aib]IANT-NH2; N-terminus assumed)
3 | 0.052 nM | 10.3 | 0.271 nM | CC[C@H](C)[C@H](NC(=O)C(C)(C)NC(=O)[C@H](CCC(N)=O)NC(=O)[C@@H](NC(=O)[C@](C)(Cc1ccccc1)NC(=O)[C@H](CC(=O)O)NC(=O)[C@H](CCCCNC(=O)CCOCCOCCOCCOCCNC(=O)CC[C@H](NC(=O)CC[C@H](NC(=O)CCCCCCCCCCCCCCCCCCC(=O)O)C(=O)O)C(=O)O)NC(=O)[C@H](C)NC(=O)[C@H](C)NC(=O)[C@H](CCCNC(=N)N)NC(=O)[C@H](CO)NC(=O)[C@H](CC(=O)O)NC(=O)[C@H](CC(C)C)NC(=O)[C@](C)(Cc1ccccc1)NC(=O)[C@H](CCCCN)NC(=O)[C@H](CO)NC(=O)[C@@H](NC(=O)[C@H](CC(=O)O)NC(=O)[C@H](CO)NC(=O)[C@@H](NC(=O)[C@](C)(Cc1ccccc1)NC(=O)[C@H](CO)NC(=O)CNC(=O)[C@H](Cc1c[nH]cn1)NC(=O)C(C)(C)NC(=O)[C@@H](N)Cc1c[nH]cn1)[C@@H](C)O)C(C)C)C(C)C)C(=O)N[C@@H](C)C(=O)N[C@@H](CC(N)=O)C(=O)N[C@H](C(N)=O)[C@@H](C)O [Peptide 269] (H-H[Aib]HGS[αMeF]TSDVSK[αMeF]LDSRAAK([PEG4-γGlu-γGlu-C20 diacid])D[αMeF]VQ[Aib]IANT-NH2; N-terminus assumed)
